Results taken from PubChem BioAssay AID330 (DTP/NCI, 2004).
Values joined by “and” are separate entries in the source; they are usually repeats but may differ in a detail not shown here. Identical values can stand only once. Toxic doses and inconclusive results are not listed. Peptide text beside a SMILES is read from it. * marks the point of attachment. Trt = c1ccc(C(c2ccccc2)(c2ccccc2)*)cc1; Cbz = O=C(OCc1ccccc1)*; OtBu = CC(C)(C)O*

Test system: P388 leukemia ip, CD2F1 mice, survival T/C
Assay: NCI In Vivo Anticancer Drug Screen. Data for tumor model P388 Leukemia (intraperitoneal) in CD2F1 (CDF1) mice
Details: endpoint: median survival time, higher = longer survival
Procedure, shortened: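 Mice carrying the transplanted tumor received test compound or vehicle. Survival was recorded in each group, and the value is the treated-group measurement divided by that of the vehicle-treated control group.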

[1] = dose: 100.0 mg/kg/injection, schedule: Q01DX001 (ip), vehicle: Klucel (hydroxypropylcellulose) (HPC)
[2] = dose: 50.0 mg/kg/injection, schedule: Q01DX005 (ip), vehicle: saline with Tween-80
[3] = dose: 100.0 mg/kg/injection, schedule: Q01DX005 (ip), vehicle: saline with Tween-80
[4] = dose: 200.0 mg/kg/injection, schedule: Q01DX005 (ip), vehicle: saline with Tween-80
[5] = dose: 50.0 mg/kg/injection, schedule: Q01DX005 (ip), vehicle: Klucel (hydroxypropylcellulose) (HPC)
[6] = dose: 100.0 mg/kg/injection, schedule: Q01DX005 (ip), vehicle: Klucel (hydroxypropylcellulose) (HPC)
[7] = dose: 25.0 mg/kg/injection, schedule: Q01DX009 (ip), vehicle: Klucel (hydroxypropylcellulose) (HPC)
[8] = dose: 50.0 mg/kg/injection, schedule: Q01DX009 (ip), vehicle: Klucel (hydroxypropylcellulose) (HPC)
[9] = dose: 100.0 mg/kg/injection, schedule: Q01DX009 (ip), vehicle: Klucel (hydroxypropylcellulose) (HPC)
[10] = dose: 200.0 mg/kg/injection, schedule: Q01DX009 (ip), vehicle: Klucel (hydroxypropylcellulose) (HPC)

With `OC(c1ccccc1)(C1CCNCC1)C1CC1` (stereo not given) the T/C (dose: 12.5 mg/kg/injection, schedule: Q01DX001 (ip), vehicle: saline) was 105 % of control, the T/C (dose: 25.0 mg/kg/injection, schedule: Q01DX001 (ip), vehicle: saline) was 101 % of control and 97 % of control and the T/C (dose: 50.0 mg/kg/injection, schedule: Q01DX001 (ip), vehicle: saline) was 103 % of control and 106 % of control. For the same molecule, the T/C [1] was 105 % of control and the T/C (dose: 100.0 mg/kg/injection, schedule: Q01DX001 (ip), vehicle: saline) was 102 % of control.

In the case of `COc1ccc(C(OC)C2CCCCC2N2CCCCC2)cc1` (stereo not given), the T/C (dose: 0.5 mg/kg/injection, schedule: Q01DX009 (ip), vehicle: Klucel (hydroxypropylcellulose) (HPC)) is reported as 107 % of control, the T/C (dose: 1.0 mg/kg/injection, schedule: Q01DX009 (ip), vehicle: Klucel (hydroxypropylcellulose) (HPC)) is reported as 114 % of control and the T/C (dose: 2.0 mg/kg/injection, schedule: Q01DX009 (ip), vehicle: Klucel (hydroxypropylcellulose) (HPC)) is reported as 107 % of control. The T/C (dose: 4.0 mg/kg/injection, schedule: Q01DX009 (ip), vehicle: Klucel (hydroxypropylcellulose) (HPC)) was 109 % of control.

For `COc1cc(C2c3cc(OS(=O)(=O)c4ccc(C)cc4)c(OC)cc3CC3C(=O)OCC32)ccc1OS(=O)(=O)c1ccc(C)cc1` (stereo not given), the T/C [2] was 91 % of control and 92 % of control, the T/C [3] was 91 % of control and the T/C [4] was 91 % of control.

For `O=[N+]([O-])c1ccc(/C=C/S(=O)(=O)Cc2ccccc2)cc1`, the T/C [2] was 105 % of control, the T/C [3] was 100 % of control and the T/C [4] was 96 % of control.

For `[Cl][Sn]1([Cl])[N]2CCCCC2C2CCCC[N]21` (stereo not given), the T/C (dose: 100.0 mg/kg/injection, schedule: Q04DX003 (ip), vehicle: saline with Tween-80) was 97 % of control and the T/C (dose: 200.0 mg/kg/injection, schedule: Q04DX003 (ip), vehicle: saline with Tween-80) was 99 % of control.

In the case of `CCOCCOCCOc1cccc2cccnc12`, the T/C [5] is reported as 103 % of control, the T/C [6] is reported as 107 % of control and the T/C (dose: 200.0 mg/kg/injection, schedule: Q01DX005 (ip), vehicle: Klucel (hydroxypropylcellulose) (HPC)) is reported as 107 % of control.

For `CC(=O)OC1CCC2(C)C(=CCC3C2CCC2(C)C(OC(C)=O)/C(=C/C(=O)O)CC32)C1` (stereo not given), the T/C [7] was 94 % of control, the T/C [8] was 97 % of control and the T/C [9] was 97 % of control. For the same molecule, the T/C [10] was 90 % of control.

In the case of `C/C(=N\NC(=S)N1CCN(Cc2ccccc2)CC1)c1ccccn1`, the T/C (dose: 3.13 mg/kg/injection, schedule: Q01DX005 (ip), vehicle: saline with Tween-80) is reported as 118 % of control and the T/C (dose: 12.5 mg/kg/injection, schedule: Q01DX005 (ip), vehicle: saline with Tween-80) is reported as 152 % of control.

With `Nc1cc2c3cccnc3ccc2c2ncccc12` the T/C (dose: 100.0 mg/kg/injection, schedule: Q01DX001 (ip), vehicle: saline with Tween-80) was 94 % of control, the T/C (dose: 200.0 mg/kg/injection, schedule: Q01DX001 (ip), vehicle: saline with Tween-80) was 89 % of control and the T/C (dose: 400.0 mg/kg/injection, schedule: Q01DX001 (ip), vehicle: saline with Tween-80) was 95 % of control.

In the case of `O=S1(=O)CCN(CCCCc2ccccc2)CC1`, the T/C [8] is reported as 94 % of control, the T/C [9] is reported as 101 % of control and the T/C [10] is reported as 101 % of control.

`O=C1C=CC(=O)N1c1ccccc1[N+](=O)[O-]` was tested, and the T/C (dose: 6.0 mg/kg/injection, schedule: Q01DX009 (ip), vehicle: saline with Tween-80) was 91 % of control.

For `Cc1nn(N)c2[nH]c(Cl)cc(=O)c12`, the T/C [2] was 97 % of control, the T/C [3] was 109 % of control and the T/C [4] was 116 % of control.

For `CC1=CC(=Nc2ccc(N(CCCl)CCCl)cc2)C(C)=C(C)C1=O`, the T/C [1] was 116 % of control and 123 % of control.

With `CCC(c1ccc(Cl)cc1)C(C#N)c1ccc(Cl)cc1` (stereo not given) the T/C [8] was 108 % of control, the T/C [9] was 104 % of control and the T/C [10] was 102 % of control.

`CCCCCCCCCCCC[n+]1cc2ccccc2cc1C` was tested, and the T/C (dose: 6.25 mg/kg/injection, schedule: Q01DX005 (ip), vehicle: saline with Tween-80) was 115 % of control and 122 % of control.

With `CC(=O)/C=C/c1ccccc1` the T/C [7] was 103 % of control, the T/C [8] was 101 % of control and the T/C [9] was 101 % of control. For the same molecule, the T/C (dose: 100.0 mg/kg/injection, schedule: Q01DX009 (ip), vehicle: saline with Tween-80) was 108 % of control, the T/C [10] was 103 % of control and the T/C (dose: 200.0 mg/kg/injection, schedule: Q01DX009 (ip), vehicle: saline with Tween-80) was 109 % of control. For the same molecule, the T/C (dose: 400.0 mg/kg/injection, schedule: Q01DX009 (ip), vehicle: saline with Tween-80) was 119 % of control and the T/C (dose: 600.0 mg/kg/injection, schedule: Q01DX009 (ip), vehicle: saline with Tween-80) was 117 % of control.

`CN1C(c2ccccc2)C2CSCC(C2O)C1c1ccccc1` (stereo not given) was tested, and the T/C (dose: 100.0 mg/kg/injection, schedule: Q04DX003 (ip), vehicle: suspension in saline) was 106 % of control, the T/C (dose: 200.0 mg/kg/injection, schedule: Q04DX003 (ip), vehicle: suspension in saline) was 100 % of control and the T/C (dose: 400.0 mg/kg/injection, schedule: Q04DX003 (ip), vehicle: suspension in saline) was 98 % of control.

In the case of `COC(=O)NC12CC3CC(C(C)O1)C2N(Cc1ccccc1)C3` (stereo not given), the T/C (dose: 25.0 mg/kg/injection, schedule: Q01DX005 (ip), vehicle: Klucel (hydroxypropylcellulose) (HPC)) is reported as 100 % of control, the T/C [5] is reported as 93 % of control and the T/C [6] is reported as 94 % of control.

With `C=C(C)[C@@H]1CC[C@@H]2C(=CC[C@]3(C)C([C@H](C)CC/C=C(/C)C(=O)O)CC[C@@]23C)[C@@]1(C)CCC(=O)O` (stereo not given in full) the T/C (dose: 1.41 mg/kg/injection, schedule: Q01DX009 (ip), vehicle: saline + alcohol) was 88 % of control, the T/C (dose: 2.81 mg/kg/injection, schedule: Q01DX009 (ip), vehicle: saline + alcohol) was 93 % of control and the T/C (dose: 5.63 mg/kg/injection, schedule: Q01DX009 (ip), vehicle: saline + alcohol) was 99 % of control. For the same molecule, the T/C (dose: 11.25 mg/kg/injection, schedule: Q01DX009 (ip), vehicle: saline + alcohol) was 99 % of control and the T/C (dose: 90.0 mg/kg/injection, schedule: Q01DX009 (ip), vehicle: saline + alcohol) was 102 % of control.

For `CSC1=Nc2cc3c(cc2C(=O)N2CC(OC(C)=O)CC12)OCO3` (stereo not given), the T/C [2] was 98 % of control, the T/C [3] was 99 % of control and the T/C [4] was 97 % of control.

In the case of `COC1/C=C\OC2(C)Oc3c(C)c(O)c4c(c3C2=O)C(=O)C(Br)=C(NC(=O)/C(C)=C\C=C/C(C)C(O)C(C)C(O)C(C)C(OC(C)=O)C1C)C4=O` (stereo not given), the T/C [7] is reported as 102 % of control, the T/C [8] is reported as 97 % of control and the T/C [9] is reported as 102 % of control. The T/C [10] was 100 % of control.

For `C1CCC2[N-]CC3CCCCC3[N-]CC3CCCCC3[N-]CC3CCCCC3[N-]CC2C1.[Cu]` (stereo not given), the T/C (dose: 0.39 mg/kg/injection, schedule: Q01DX009 (ip), vehicle: saline) was 105 % of control, the T/C (dose: 0.78 mg/kg/injection, schedule: Q01DX009 (ip), vehicle: Klucel (hydroxypropylcellulose) (HPC)) was 121 % of control and the T/C (dose: 0.78 mg/kg/injection, schedule: Q01DX009 (ip), vehicle: saline) was 123 % of control. The T/C (dose: 1.56 mg/kg/injection, schedule: Q01DX009 (ip), vehicle: saline) was 123 % of control, the T/C (dose: 1.56 mg/kg/injection, schedule: Q01DX009 (oral), vehicle: Klucel (hydroxypropylcellulose) (HPC)) was 89 % of control and the T/C (dose: 3.12 mg/kg/injection, schedule: Q01DX009 (oral), vehicle: Klucel (hydroxypropylcellulose) (HPC)) was 99 % of control. The T/C (dose: 6.25 mg/kg/injection, schedule: Q01DX009 (oral), vehicle: Klucel (hydroxypropylcellulose) (HPC)) was 99 % of control, the T/C (dose: 12.5 mg/kg/injection, schedule: Q01DX009 (ip), vehicle: Klucel (hydroxypropylcellulose) (HPC)) was 119 % of control and the T/C (dose: 12.5 mg/kg/injection, schedule: Q01DX009 (oral), vehicle: Klucel (hydroxypropylcellulose) (HPC)) was 93 % of control and 98 % of control. For the same molecule, the T/C (dose: 25.0 mg/kg/injection, schedule: Q01DX009 (oral), vehicle: Klucel (hydroxypropylcellulose) (HPC)) was 106 % of control and 91 % of control, the T/C (dose: 50.0 mg/kg/injection, schedule: Q01DX009 (oral), vehicle: Klucel (hydroxypropylcellulose) (HPC)) was 93 % of control and the T/C (dose: 100.0 mg/kg/injection, schedule: Q01DX009 (oral), vehicle: Klucel (hydroxypropylcellulose) (HPC)) was 93 % of control and 98 % of control. The T/C (dose: 200.0 mg/kg/injection, schedule: Q01DX009 (oral), vehicle: Klucel (hydroxypropylcellulose) (HPC)) was 88 % of control.

`CC(C)CC(NC(=O)C(CSC(c1ccccc1)(c1ccccc1)c1ccccc1)NC(=O)OCc1ccccc1)C(=O)NC(C(=O)OC(C)(C)C)C(C)C` (stereo not drawn) (Cbz-Cys(Trt)-Leu-Val-OtBu; configuration not given here) was tested, and the T/C (dose: 60.0 mg/kg/injection, schedule: Q01DX005 (ip), vehicle: Klucel (hydroxypropylcellulose) (HPC)) was 96 % of control, the T/C (dose: 120.0 mg/kg/injection, schedule: Q01DX005 (ip), vehicle: Klucel (hydroxypropylcellulose) (HPC)) was 100 % of control and the T/C (dose: 240.0 mg/kg/injection, schedule: Q01DX005 (ip), vehicle: Klucel (hydroxypropylcellulose) (HPC)) was 107 % of control.

`CC1(C)CN(c2ccccc2)N(CO)C1=O` was tested, and the T/C (dose: 6.25 mg/kg/injection, schedule: Q04DX003 (ip), vehicle: saline) was 101 % of control and the T/C (dose: 12.5 mg/kg/injection, schedule: Q04DX003 (ip), vehicle: saline) was 109 % of control.
